From patent US4594345A, “Methylflavone-8-carboxylates” (Nippon Shinyaku Co. Ltd., priority 1982, dated 1986) come the findings set out here.

For experiment [1], the system named is passive cutaneous anaphylaxis (PCA). Briefly: Passive cutaneous anaphylaxis assay (PCA) in rats. As to conditions: oral 10 mg/kg, one hour before antigen; for inhibition in vivo at 10 mg/kg: Rattus norvegicus, po, 1 h, read-out: PCA Inhibition Ratio %. The experiment is classed as in vivo, rat (Wister strain). The method, then: (§1) The effect of the compounds (I) of the present invention in the treatment of asthma and allergic diseases were evaluated by a passive cutaneous anaphylaxis assay (PCA) in rats and by measuring anti-SRS-A action using ileus of guinea pigs.
(i) Antiserum abundant in homocytotropic antibody is prepared by the same method as Tada and Okumura did (cf. Journal of Immunology, volume 106, page 1002, […]). Thus, one mg (calculated as an amount of protein) of DNP-As (2,4-dinitrophenyl-coupled ascaris extract) prepared by methods of Strejan and Campbell (Journal of Immunology, volume 98, page 893, 1971) and of Eisen (Journal of American Chemical Society, volume 85, page 4593, 1953) and […] pertussis vaccine are administered to each paw of Wister strain rats (180 to 200 grams body weights) by dividing the dose by four. Five days later, 0.5 mg of DNP-As is adminstered into muscle of back. Eight days later from the initial immunization, blood is taken from descending aorta under anesthetizing with ether, the resulting serum is stored at -80° C. and is melted before use.
(ii) Effect of tested compounds is investigated as follows:
Anti-serum obtained by the method (i) is diluted with physiological saline solution double by double successively and 0.05 ml of each diluted solution is administered into back of Wister strain rats (140 to 160 grams body weight) subcutaneously. After 72 hours, a solution of 2 mg (calculated as protein) of DNP-As and 2.5 mg of Evand Blue dissolved in 1 ml of physiological saline solution is administered intravenously at a dose of 5 ml/kg. After thirty minutes from antigen solution administration, the animals are killed and diameters of blue spots appeared at the place where antiserum is administered are measured. The PCA test is conducted by the same method as already described using a diluted solutions of antiserum which always show 10 mm or more of spot diameters and the effect of the test compounds is judged. Thus, antiserum diluted solutions are administered to two places in back. Test compounds are administered orally at the dose of 10 mg/kg one hour before administration of antigen solution. From the skin of reacted parts of killed animals, leaked or emitted dyestuff is extracted [cf. Baeck and Steinetz: J. Pharmacol. Exp. Ther., Vol. 131, page 400 (1961)] and the amount of the dyestuff is measured. The inhibition ratio is calculated by the following expression: [formula] in which R' is an amount of dyestuff in the group treated with the test compounds and A is that in the control group.

The next experiment has as its system SRS-A. Briefly: Anti-SRS-A action (SRS-A induced shrinkage of guinea pig ileus). Further details: species or system guinea pig (Hartley strain male). As to conditions: treated five minutes before SRS-A (20 units), 5 min; for SRS-A Inhibition Ratio % 10^-6 M: 1 µM; for SRS-A Inhibition Ratio % 10^-7 M: 0.1 µM. The method, then: as §1
Anti-SRS-A action (An anti-action against slow reacting substance of anaphylaxie)
Hartley strain male guinea pigs (300 to 350 grams body weight) are killed and 1.0 to 1.5 cm of ileus is immediately excised from ileocecal parts and is suspended in 10 ml of Tyrode solution (95% O2 -5% CO2 saturation) containing 10^-7 g/ml of atropine and 10^-6 g/ml of pyrilamine. SRS-A (20 units) (the amount of SRS-A showing the same shrinkage as 5 ng of histamine is defined as one unit) prepared by using sensitized guinea pig lung is given to cause shrinkage there. Then antagonistic action of test compounds treated five minutes ago against the shrinkage is measured and recorded via isotonic transducer. [formula] in which A' is a height of shrinkage of SRS-A + test compound and A is that of SRS-A.

The structures appear in SMILES notation.

As for `Cc1c(-c2ccc(C(C)C)cc2)oc2c(C(=O)O)cccc2c1=O` [Example 7, 4'-Isopropyl-3-methylflavone-8-carboxylic acid], the inhibition in vivo at 10 mg/kg in experiment [1] was 19.7%. In addition, in the experiment on SRS-A, the “SRS-A Inhibition Ratio % 10^-6 M” value came to 40.8% and the “SRS-A Inhibition Ratio % 10^-7 M” value was 19.0%.
The like results for `COC(=O)c1cccc2c(=O)c(C)c(-c3ccccc3)oc12` [Example 8, Methyl 3-methylflavone-8-carboxylate] were, in that order, 17.4%, 64.9% and 45.0%.
The like results for `CCN(CC)C(=O)c1cccc2c(=O)c(C)c(-c3ccccc3)oc12` [Example 9, 3-methylflavone-8-carboxylic acid N,N-diethylamide] were, in that order, 21.9%, 64.7% and 50.7%.
The like results for `CCN(CC)C(=O)c1cccc2c(=O)c(C)c(-c3ccccc3OC)oc12` [Example 12, 2'-methoxy-3-methylflavone-8-carboxylic acid N,N-diethylamide] were, in that order, 19.2%, 52.4% and 8.3%.
For `CCNC(=O)c1cccc2c(=O)c(C)c(-c3ccc(OC)cc3)oc12` [Example 15, 4'-methoxy-3-methylflavoen-8-carboxylic acid N-ethylamide], the inhibition in vivo at 10 mg/kg in experiment [1] is 19%. Moreover, in the experiment with SRS-A, the “SRS-A Inhibition Ratio % 10^-6 M” value came to 41.9% and the “SRS-A Inhibition Ratio % 10^-7 M” value is given as 30.3%.
Taken in the same sequence, the figures for `CCOc1ccccc1-c1oc2c(C(=O)O)cccc2c(=O)c1C` [Example 16, 2'-ethoxy-3-methylflavone-8-carboxylic acid] were 18.6%, 14.8% and 10.4%.
On to `CCOC(=O)c1cccc2c(=O)c(C)c(-c3ccccc3OCC)oc12` [Example 17, ethyl 2'-ethoxy-3-methylflavone-8-carboxylate], for which the inhibition in vivo at 10 mg/kg in experiment [1] stood at 21.1%. In the experiment on SRS-A, the “SRS-A Inhibition Ratio % 10^-6 M” value is given as 72.5% and the “SRS-A Inhibition Ratio % 10^-7 M” value stood at 50.0%.
Taken in the same sequence, the figures for `CCNC(=O)c1cccc2c(=O)c(C)c(-c3ccccc3OCC)oc12` [Example 19, 2'-ethoxy-3-methylflavone-8-carboxylic acid N-ethylamide] were 16%, 50.0% and 30.0%.
The like results for `CCOC(=O)c1cccc2c(=O)c(C)c(-c3ccccc3OC(C)C)oc12` [Example 21, ethyl 2'-isopropoxy-3-methylflavone-8-carboxylate] were, in that order, 17.8%, 31.0% and 19.8%.
For the compound `CCN(CC)C(=O)c1cccc2c(=O)c(C)c(-c3ccccc3OC(C)C)oc12` [Example 22, 2'-isopropoxy-3-methylflavone-8-carboxylic acid N,N-diethylamide], the inhibition in vivo at 10 mg/kg in experiment [1] was found to be 16.1%. In addition, in the experiment with SRS-A, the “SRS-A Inhibition Ratio % 10^-6 M” value was 66.7% and the “SRS-A Inhibition Ratio % 10^-7 M” value was 40.0%.
The like results for `COc1cccc(-c2oc3c(C(=O)O)cccc3c(=O)c2C)c1OC` [Example 23, 2',3'-dimethoxy-3-methylflavone-8-carboxylic acid] were, in that order, 19.5%, 24.0% and 6.2%.
Regarding `CCOC(=O)c1cccc2c(=O)c(C)c(-c3cccc(OC)c3OC)oc12` [Example 24, ethyl 2'.3'-dimethoxy-3-methylflavone-8-carboxylate], the inhibition in vivo at 10 mg/kg in experiment [1] was 20.4%. In addition, in the experiment with SRS-A, the “SRS-A Inhibition Ratio % 10^-6 M” value was 100% and the “SRS-A Inhibition Ratio % 10^-7 M” value stood at 18.2%.
The like results for `CCN(CC)C(=O)c1cccc2c(=O)c(C)c(-c3ccc(OC)cc3OC)oc12` [Example 28, 2',4'-dimethoxy-3-methylflavone-8-carboxylic acid N,N-diethylamide] were, in that order, 20.1%, 63.2% and 23.0%.
Taken in the same sequence, the figures for `CCN(CC)C(=O)c1cccc2c(=O)c(C)c(-c3ccc(OC)c(OC)c3OC)oc12` [Example 30, 2',3',4'-trimethoxy-3-methylflavone-8-carboxylic acid N,N-diethylamide] were 16.3%, 31.0% and 18.0%.
As to `CCOC(=O)c1cccc2c(=O)c(C)c(-c3ccc(OC)c(OC)c3OC)oc12` [Example 31, ethyl 2',3',4'-trimethoxy-3-methylflaveone-8-carboxylate], in experiment [1], the “PCA Inhibition Ratio %” value is 20.2%. In the experiment with SRS-A, the “SRS-A Inhibition Ratio % 10^-6 M” value stood at 63.0% and the “SRS-A Inhibition Ratio % 10^-7 M” value was determined as 20.4%.
Regarding `CCOC(=O)c1cccc2c(=O)c(C)c(-c3ccccc3C)oc12` [Example 34, 2',3-dimethylflavone-8-carboxylic acid ethyl ester], in experiment [1], the inhibition in vivo at 10 mg/kg is 19.5%. Further, in the experiment on SRS-A, the “SRS-A Inhibition Ratio % 10^-6 M” value was 71.4% and the “SRS-A Inhibition Ratio % 10^-7 M” value is on record as 47.6%.
Take `CCOC(=O)c1cccc2c(=O)c(C)c(-c3ccccc3CC)oc12` [Example 37, ethyl 2'-ethyl-3-methylflavone-8-carboxylate]: the inhibition in vivo at 10 mg/kg in experiment [1] is 20.5%. In the experiment on SRS-A, the “SRS-A Inhibition Ratio % 10^-6 M” value was 100% and the “SRS-A Inhibition Ratio % 10^-7 M” value was found to be 25.0%.
Taken in the same sequence, the figures for `CCc1ccccc1-c1oc2c(C(=O)N(CC)CC)cccc2c(=O)c1C` [Example 38, 2'-ethyl-3-methylflavone-8-carboxylic acid N,N-diethylamide] were 16%, 100% and 29.6%.
In the case of `Cc1ccc(-c2oc3c(C(=O)O)cccc3c(=O)c2C)c(C)c1` [Example 39, 2',3,4'-trimethylflavone-8-carboxylic acid], the inhibition in vivo at 10 mg/kg in experiment [1] worked out at 37%. Also, in the experiment on SRS-A, the “SRS-A Inhibition Ratio % 10^-6 M” value is on record as 5.3% and the “SRS-A Inhibition Ratio % 10^-7 M” value is given as 3.2%.
In the case of `CCOC(=O)c1cccc2c(=O)c(C)c(-c3ccc(C)cc3C)oc12` [Example 40, ethyl 2',3,4'-trimethylflavone-8-carboxylate], the inhibition in vivo at 10 mg/kg in experiment [1] turned out to be 17.3%. In the experiment on SRS-A, the “SRS-A Inhibition Ratio % 10^-6 M” value amounted to 73.9% and the “SRS-A Inhibition Ratio % 10^-7 M” value turned out to be 8.1%.
In the case of `CCN(CC)C(=O)c1cccc2c(=O)c(C)c(-c3ccc(C)cc3C)oc12` [Example 41, 2',3,4'-trimethylflavone-8-carboxylic acid N,N-diethylamide], the inhibition in vivo at 10 mg/kg in experiment [1] amounted to 31.4%. In addition, in the experiment on SRS-A, the “SRS-A Inhibition Ratio % 10^-6 M” value is 54.1% and the “SRS-A Inhibition Ratio % 10^-7 M” value is recorded as 23.4%.
Taken in the same sequence, the figures for `Cc1ccc(-c2oc3c(C(=O)OCCO)cccc3c(=O)c2C)c(C)c1` [Example 42, beta-hydroxyethyl 2'.3.4'-trimethylflavone-8-carboxylate] were 19.8%, 27.6% and 10.3%.
`CCCCN(CC)C(=O)c1cccc2c(=O)c(C)c(-c3ccc(C)cc3C)oc12` [Example 43, 2',3,4'-trimethylflavone-8-carboxylic acid N-n-butyl-N-ethylamide]: in experiment [1], the inhibition in vivo at 10 mg/kg came to 18.8%. In the experiment on SRS-A, the “SRS-A Inhibition Ratio % 10^-6 M” value turned out to be 68.1% and the “SRS-A Inhibition Ratio % 10^-7 M” value was 23.4%.
Taken in the same sequence, the figures for `CCOC(=O)c1cccc2c(=O)c(C)c(-c3ccc(CC)cc3)oc12` [Example 45, ethyl 4'-ethyl-3-methylflavone-8-carboxylate] were 19%, 52.2% and 16.0%.
